Patent US20140243332A1, “METHODS OF TREATING CANCERS CHARACTERIZED BY ABERRENT ROS1 ACTIVITY” (Oregon Health & Science University, priority 2013, published 2014)

Key:
Ba/F3 parental cells = assay: Cell viability (MTS) assay, Ba/F3 parental; assay type: cell-based; conditions: Mus musculus, BaF3, read-out: IC50 (insensitive/resistant up to stated concentration)
Description: The parental Ba/F3 cell line was cultured in RPMI 1640 medium with 10% FBS, L-glutamine, penicillin/streptomycin and 15% WEHI-conditioned media. Ba/F3 cell lines were maintained at densities of 0.5×10^6 to 1.5×10^6 per ml of media. FIG-ROS and SLC-ROS Ba/F3 lines were created by infecting the parental Ba/F3 with retrovirus expressing either human FIG-ROS-S (indicated FIG-ROS herein) or SLC-ROS-S (indicated SLC-ROS herein). Stable transfectant lines were sorted for GFP expression on a FACS Aria® flow cytometer. Cells were counted daily using Guava ViaCount® reagent and Guava Personal Cell Analysis® flow cytometer. […] Early passage NIH3T3 cells were infected with retrovirus expressing either FIG-ROS or SLC-ROS and sorted for GFP expression as described above for Ba/F3 cells. HCC78 cells were cultured in RPMI 1640 medium with 10% FBS, L-glutamine, and penicillin/streptomycin. This media is referred to as RPMI-10% FBS herein.
[…]. The Ba/F3 parental line was also tested. (O'Dwyer M E and Druker B J, Lancet Oncology 1, 207-211 (2000); Walters D K et al, Cancer Cell 10, 65-75 (2006); and Heukamp L C et al, Science Translational Medicine 4, 141ra191 (2012); […].

[1] = system: SLC-ROS and ERK1/2 phosphorylation; assay: Immunoblot of HCC78 lysates; assay type: cell-based, human; conditions: HCC78 cells, immunoblot FIG. 1E
Description: FIG. 1E is an image of an immunoblot of lysates of HCC78 cells probing for phosphorylated and total SLC-ROS1 and ERK1/2, and phosphorylated protein S6 after treatment with the indicated concentration of the indicated inhibitor. The images are representative of two independent experiments.
(§1) Ba/F3 FIG-ROS, Ba/F3 SLC-ROS, HCC78 and mCC cell lines were treated with the indicated concentration of inhibitors for 1-2 hours. […] The protein content of the cell lysates was determined and lysates were either used for immunoprecipitation where indicated or extracted with SDS Sample buffer for 15 minutes at 80° C. Proteins were transferred to Immobilon-FL membranes and immunoblotted with antibodies specific for phospho-ROS1 (Cell Signaling Technology (CST) #3078), total ROS1 (CST #3266), phopsho-Shp2 (CST #3751), total Shpt (CST #3752), phospho-Stat3 (CST #9145), total Stat3 (CST #4904), phospho-Erk1/2 (CST #9101), total Erk2 (Santa Cruz #SC-1647), phospho-S6 (CST #4858), total S6 (CST #2216), phospho-Src (CST #2105), total Src (CST #2110), α-tubulin (Sigma T6199), or β-actin (Sigma A1978) as indicated. Images of the blots were generated by the LI-COR Odyssey® imaging system, following the manufacturer's protocol for immunoblot detection with use of IR-dye conjugated secondary antibodies.

HCC78 cells = assay: HCC78 cell migration (scratch gap closure); assay type: cell-based, human; conditions: 50 nM, 18 hours, FIG. 6A
Description: FIG. 6A is a set of six images on the left and a bar graph on the right. The images at left are of a gap at 10 minutes and at 18 hours after ‘scratch’ of cells on a surface. […] The right panel is a bar graph depicting the percent of gap closure determined by measuring the length of a straight line drawn across the gap from imaging the same field of view at initiation of treatment and at 18 hours. Scale bar=200 μm

PC9 cells = assay: Cell viability assay, PC9; assay type: cell-based, human; conditions: PC9 cells (activated EGFR), FIG. 6B
Description: IC50 was determined from non-linear regression curve fit analysis of the dose response curves.

NIH3T3 SLC-ROS cells = assay: Soft agar colony formation, NIH3T3 SLC-ROS; assay type: cell-based; conditions: at lower doses than crizotinib
Excerpt: The bottom panels are bar graphs indicating the number of colonies formed from the plates depicted in the top panels. The values indicate average colony number±SEM from 4 independent wells.

[2] = target: Ba/F3 FIG-ROS L1982F cells (Homo sapiens, UniProt P08922, L1982F, cells depend on it); assay: Cell viability assay, Ba/F3 FIG-ROS L1982F; assay type: cell-based; conditions: Table 3, Ba/F3 FIG-ROS L1982F; nM; read-out: IC50 (the source's name)
Description: (§2) Cell lines were distributed in 96-well plates and incubated with the indicated concentrations of inhibitor for 72 hours. […] Ba/F3 cell lines were plated at 4×10^3 cells/well. HCC78 and mCC cell lines were plated at 1.5×10^3 cells/well. All cell types were seeded in a final volume of 80 microliters. A 20 microliter volume of five-fold concentrated inhibitor media was added. Cell proliferation was measured using a […] viability assay (CellTiter96 Aqueous One® Solution; Promega). A BioTek Synergy 2® plate reader was used to read the absorbance at 490 nm at 30 minutes and 1 hour after addition of MTS. To facilitate comparison between experiments, the raw MTS absorbance of vehicle (0.1% DMSO) treated cells was set to 1 and absorbance from inhibitor treated wells was normalized to the vehicle treated value. […] Data were normalized using Microsoft Excel® and further non-linear regression curve fit analysis of the normalized data for determination of IC50 was performed using Graphpad Prism® software.
(§3) The FIG-ROS-S fusion gene was synthesized using the GeneArt® service. FIG-ROS-S is denoted as FIG-ROS herein.

[3] = target: Ba/F3 FIG-ROS E1935G cells (Homo sapiens, UniProt P08922, E1935G, cells depend on it); assay: Cell viability assay, Ba/F3 FIG-ROS E1935G; assay type: cell-based; conditions: Table 3, Ba/F3 FIG-ROS E1935G; nM; read-out: IC50 (the source's name)
Description: as §2, §3

[4] = target: Ba/F3 CD74-ROS G2032R mutant cells (Homo sapiens, UniProt P08922, G2032R, cells depend on it); assay: Cell growth assay, Ba/F3 CD74-ROS G2032R; assay type: cell-based; conditions: 72 hour exposure, read-out: IC50 (the source's name)
Description: Data are shown as normalized to vehicle-treated cells. The values are means±SEM from three independent experiments performed in triplicate.

FIG-ROS = FIG-ROS (Homo sapiens, UniProt P08922); assay: Immunoblot of FIG-ROS murine cholangiocarcinoma cell lysates; assay type: cell-based; set-up: expressed in transfected cells; host or cells: murine cholangiocarcinoma tumour cell lines (lines 3 and 4) derived from transduced mouse hepatoblasts; the other entry of the earlier key: GOPC (Q9HD26, Golgi-associated PDZ and coiled-coil motif-containing protein); conditions: 100 nM, FIG-ROS murine cholangiocarcinoma cells
Description: […]. Images shown are representative of three independent experiments.
as §1
. The inhibition was dose dependent (FIG. 2B). […].

Question: Which IC50 (Ba/F3 parental cells) does the source give for COc1cc2c(Oc3ccc(NC(=O)C4(C(=O)Nc5ccc(F)cc5)CC4)cc3F)ccnc2cc1OCCCN1CCOCC1 [foretinib, N1′-[3-fluoro-4-[[6-methoxy-7-(3-morpholinopropoxy)-4-quinolyl]oxy]phenyl]-N1-(4-fluorophenyl)cyclopropane-1,1-dicarboxamide] here?
Answer: > 2000 nM

Question: What about the “inhibition of SLC-ROS and ERK1/2 phosphorylation” value [1] of the same molecule?
Answer: at a lower concentration than did crizotinib

Question: And the HCC78 cell migration (HCC78 cells)?
Answer: more potently inhibited by foretinib than crizotinib

Question: What about the “sensitivity of cell growth” value (PC9 cells) of the same molecule?
Answer: relatively insensitive

Question: And the anchorage-independent colony formation (NIH3T3 SLC-ROS cells)?
Answer: strongly suppressed

Question: And the GI50 [2]?
Answer: 15.3 nM

Question: What about the GI50 [3] of the same molecule?
Answer: 6.6 nM

Question: What about the GI50 [4] of the same molecule?
Answer: 50 nM

Question: What about the “auto-phosphorylation of FIG-ROS and phosphorylation of Shpt and ERK1/2” value (FIG-ROS) of the same molecule?
Answer: almost completely inhibited
